Experiments:
[1] = target: wild type NS5B Genotype 1b (Hepatitis C virus genotype 1b (isolate Con1) (HCV), UniProt Q9WMX2); experiment: HCV NS5B polymerase reaction, wild type; assay type: biochemical; conditions: Table 5, nucleoside triphosphates
S282T NS5B Genotype 1b = S282T NS5B Genotype 1b (Hepatitis C virus genotype 1b (isolate Con1) (HCV), UniProt Q9WMX2, S2701T); experiment: HCV NS5B polymerase reaction, S282T mutant; assay type: biochemical; conditions: Table 5, nucleoside triphosphates
Experimental: The HCV NS5B reaction was performed in a 20 μL mixture containing varying concentrations of the test compound, 1 μM of all four natural ribonucleotides, [α-^32P]UTP, 20 ng/μL of genotype 1b (−) IRES RNA template, 1 unit/μL of SUPERase•In (Ambion, Austin, Tex.), 40 ng/μL of wild type or S282T NS5B Genotype 1b, 1 mM MgCl2, 0.75 mM MnCl2, and 2 mM DTT in 50 mM Hepes buffer (pH 7.5). The reaction was quenched by adding 80 μL of stop solution (12.5 mM EDTA, 2.25 M NaCl, and 225 mM sodium citrate) after incubating at 27° C. for 30 minutes. The radioactive RNA products were separated from unreacted substrates by passing the quenched reaction mixture through a Hybond N+ membrane (GE Healthcare, Piscataway, N.J.) using a dot-blot apparatus. The RNA products were retained on the membrane and the free nucleotides were washed out. The membrane was washed 4 times with a solution containing 0.6 M NaCl and 60 mM sodium citrate. After rinsing the membrane with water followed by ethanol, the membrane was exposed to a phosphorscreen and the products were visualized and quantified using a phosphorimager. The IC50 values were calculated using GraFit program version 5 (Erithacus Software, Horley, Surrey, UK). All the reactions were done in duplicate and the results were reported as IC50±standard error.

S282T NS5B Genotype 1b, sequence (Q9WMX2 2420-3010 S2701T): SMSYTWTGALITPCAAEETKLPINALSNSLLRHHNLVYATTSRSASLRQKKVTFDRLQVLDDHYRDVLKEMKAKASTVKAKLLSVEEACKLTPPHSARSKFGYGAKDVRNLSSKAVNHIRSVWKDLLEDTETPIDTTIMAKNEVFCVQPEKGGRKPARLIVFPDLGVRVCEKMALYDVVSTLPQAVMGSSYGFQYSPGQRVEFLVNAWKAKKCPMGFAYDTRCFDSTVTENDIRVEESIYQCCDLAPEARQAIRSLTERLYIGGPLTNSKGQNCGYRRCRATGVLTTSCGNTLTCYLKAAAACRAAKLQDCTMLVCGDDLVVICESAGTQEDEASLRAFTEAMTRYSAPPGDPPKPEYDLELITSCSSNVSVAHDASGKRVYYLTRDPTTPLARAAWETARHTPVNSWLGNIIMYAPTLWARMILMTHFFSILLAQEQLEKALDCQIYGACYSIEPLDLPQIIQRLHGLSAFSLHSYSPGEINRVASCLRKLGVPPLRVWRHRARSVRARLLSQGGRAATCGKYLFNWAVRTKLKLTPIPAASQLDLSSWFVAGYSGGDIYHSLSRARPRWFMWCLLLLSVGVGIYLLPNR
wild type NS5B Genotype 1b, sequence (Q9WMX2 2420-3010): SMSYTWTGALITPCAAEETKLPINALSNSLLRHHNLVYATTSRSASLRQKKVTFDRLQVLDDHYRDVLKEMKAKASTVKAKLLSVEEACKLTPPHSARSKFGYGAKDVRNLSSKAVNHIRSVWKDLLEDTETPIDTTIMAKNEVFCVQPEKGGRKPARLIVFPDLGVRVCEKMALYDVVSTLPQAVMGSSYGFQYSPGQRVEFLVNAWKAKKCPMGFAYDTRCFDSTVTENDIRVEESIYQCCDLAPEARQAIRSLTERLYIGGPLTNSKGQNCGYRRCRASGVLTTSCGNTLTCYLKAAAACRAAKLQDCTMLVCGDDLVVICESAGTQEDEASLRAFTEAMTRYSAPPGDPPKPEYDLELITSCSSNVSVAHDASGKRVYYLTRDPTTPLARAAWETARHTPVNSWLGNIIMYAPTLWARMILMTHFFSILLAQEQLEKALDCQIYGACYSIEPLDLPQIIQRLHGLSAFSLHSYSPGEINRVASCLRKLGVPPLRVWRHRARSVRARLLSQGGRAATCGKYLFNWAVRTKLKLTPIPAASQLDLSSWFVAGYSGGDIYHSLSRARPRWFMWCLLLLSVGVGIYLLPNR

## O=c1ccn(C2OC(CO)[C@@H](O)[C@]23CCO3)c(=O)[nH]1 (stereo partly shown) [compound 136]
[1]
  IC50: 39.4 µM
S282T NS5B Genotype 1b
  IC50: > 100 µM

## Nc1ccn(C2OC(CO)[C@@H](O)[C@]23CCCO3)c(=O)n1 (stereo partly shown) [compound 137]
[1]
  IC50: > 45.3 µM
S282T NS5B Genotype 1b
  IC50: > 100 µM

## Nc1ccn(C2OC(CO)[C@@H](O)[C@@]23CCO3)c(=O)n1 (stereo partly shown) [compound 139]
[1]
  IC50: > 100 µM

## Nc1ccn(C2OC(CO)[C@@H](O)[C@]23CCO3)c(=O)n1 (stereo partly shown) [compound 140]
[1]
  IC50: > 8.48 µM
S282T NS5B Genotype 1b
  IC50: 56.7 µM

— patent publication US9394331B2, “2′-spiro-nucleosides and derivatives thereof useful for treating hepatitis C virus and dengue virus infections” (priority 2010, dated 2016)
